Assay results as given in PubChem BioAssay AID1963434 (Molecular Pharmacology Branch, DTP, NCI, 2024).

System: 755483-174-R-J1-PDC complex spheroid growth, percent test/control
Experiment: Anticancer human tumor 755483-174-R-J1-PDC patient-derived rhabdomyosarcoma cell line growth inhibition [Asc]
Details: for IC50: curve of first compound; for viability, T/C: stronger effect = lower value; active = viability on the fitted dose curve at most 10% of control; inactive = the rest
Method in brief: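 Complex spheroids combining tumor cells with HUVEC endothelial cells and human MSCs, at 37 degrees C, 5% CO2; agents tested alone or combined, half-log dilutions from at or near clinical Cmax, or 10 microM if Cmax unknown.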
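Also: spheroids exposed to compounds for seven days before readout.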

Cn1ncnc1[C@H]1c2n[nH]c(=O)c3cc(F)cc(c23)N[C@@H]1c1ccc(F)cc1 + CCN1C(C(=O)NC23CCC(C(=O)O)(CC2)CC3)C(c2cccc(Cl)c2F)C2(C(=O)Nc3cc(Cl)ccc32)C12CCCCC2
1.56 nM: IC50 (second compound 3 µM)
12.4 nM: IC50 (second compound 0.0949 µM)
inactive: viability, T/C (second compound 0.03 µM, first compound 0.000316 µM) 64.6% | viability, T/C (second compound 0.03 µM, first compound 0.001 µM) 64.9% | viability, T/C (second compound 0.03 µM, first compound 0.00316 µM) 55.6% | viability, T/C (second compound 0.03 µM, first compound 0.01 µM) 48.1% | viability, T/C (second compound 0.03 µM, first compound 0.0316 µM) 45.9% | viability, T/C (second compound 0.03 µM, first compound 0.1 µM) 35.1% | viability, T/C (second compound 0.0949 µM, first compound 0.000316 µM) 70.1% | viability, T/C (second compound 0.0949 µM, first compound 0.001 µM) 71.2% | viability, T/C (second compound 0.0949 µM, first compound 0.00316 µM) 62.7% | viability, T/C (second compound 0.0949 µM, first compound 0.01 µM) 54.1% | viability, T/C (second compound 0.0949 µM, first compound 0.0316 µM) 31.1% | viability, T/C (second compound 0.0949 µM, first compound 0.1 µM) 35.5% | viability, T/C (second compound 0.3 µM, first compound 0.000316 µM) 64.9% | viability, T/C (second compound 0.3 µM, first compound 0.001 µM) 55% | viability, T/C (second compound 0.3 µM, first compound 0.00316 µM) 58.6% | viability, T/C (second compound 0.3 µM, first compound 0.01 µM) 42.7% | viability, T/C (second compound 0.3 µM, first compound 0.0316 µM) 30.4% | viability, T/C (second compound 0.3 µM, first compound 0.1 µM) 32.6% | viability, T/C (second compound 0.949 µM, first compound 0.000316 µM) 66.6% | viability, T/C (second compound 0.949 µM, first compound 0.001 µM) 66.2% | viability, T/C (second compound 0.949 µM, first compound 0.00316 µM) 74% | viability, T/C (second compound 0.949 µM, first compound 0.01 µM) 45.4% | viability, T/C (second compound 0.949 µM, first compound 0.0316 µM) 43.1% | viability, T/C (second compound 0.949 µM, first compound 0.1 µM) 33.8% | viability, T/C (second compound 3 µM, first compound 0.000316 µM) 59.6% | viability, T/C (second compound 3 µM, first compound 0.001 µM) 51.8% | viability, T/C (second compound 3 µM, first compound 0.00316 µM) 45.5% | viability, T/C (second compound 3 µM, first compound 0.01 µM) 45.5% | viability, T/C (second compound 3 µM, first compound 0.0316 µM) 41.6% | viability, T/C (second compound 3 µM, first compound 0.1 µM) 39.3%
7.98 nM: IC50 (second compound 0.949 µM)
10.9 nM: IC50 (second compound 0.03 µM)
5.94 nM: IC50 (second compound 0.3 µM)

NC1CCC(NC2CC2c2ccccc2)CC1 (stereo not given) + Cc1c(S(C)(=O)=O)c(-c2cc(F)cc(N3CCN(c4ccc(NS(=O)(=O)c5ccc(NC(CCN6CCC(C(=O)OCCCP(=O)(O)O)CC6)CSc6ccccc6)c(S(=O)(=O)C(F)(F)F)c5)cc4)CC3)c2)c(-c2ccc(Cl)cc2)n1C(C)C
< 0.316 nM: IC50 (second compound 0.1 µM) | IC50 (second compound 0.316 µM) | IC50 (second compound 1 µM) | IC50 (second compound 3.16 µM) | IC50 (second compound 10 µM)
inactive: viability, T/C (second compound 0.1 µM, first compound 0.000316 µM) 36.7% | viability, T/C (second compound 0.1 µM, first compound 0.001 µM) 31.1% | viability, T/C (second compound 0.1 µM, first compound 0.00316 µM) 37.3% | viability, T/C (second compound 0.1 µM, first compound 0.01 µM) 37.3% | viability, T/C (second compound 0.1 µM, first compound 0.0316 µM) 33.7% | viability, T/C (second compound 0.1 µM, first compound 0.1 µM) 37% | viability, T/C (second compound 0.316 µM, first compound 0.000316 µM) 39.7% | viability, T/C (second compound 0.316 µM, first compound 0.001 µM) 42.1% | viability, T/C (second compound 0.316 µM, first compound 0.00316 µM) 31.7% | viability, T/C (second compound 0.316 µM, first compound 0.01 µM) 26.7% | viability, T/C (second compound 0.316 µM, first compound 0.0316 µM) 35.9% | viability, T/C (second compound 0.316 µM, first compound 0.1 µM) 30.5% | viability, T/C (second compound 1 µM, first compound 0.000316 µM) 27.6% | viability, T/C (second compound 1 µM, first compound 0.001 µM) 19.3% | viability, T/C (second compound 1 µM, first compound 0.00316 µM) 31.9% | viability, T/C (second compound 1 µM, first compound 0.01 µM) 31.5% | viability, T/C (second compound 1 µM, first compound 0.0316 µM) 31.1% | viability, T/C (second compound 1 µM, first compound 0.1 µM) 39.5% | viability, T/C (second compound 3.16 µM, first compound 0.000316 µM) 25.2% | viability, T/C (second compound 3.16 µM, first compound 0.001 µM) 32.8% | viability, T/C (second compound 3.16 µM, first compound 0.00316 µM) 22.7% | viability, T/C (second compound 3.16 µM, first compound 0.01 µM) 35.9% | viability, T/C (second compound 3.16 µM, first compound 0.0316 µM) 24.9% | viability, T/C (second compound 3.16 µM, first compound 0.1 µM) 35.4% | viability, T/C (second compound 10 µM, first compound 0.000316 µM) 20.4% | viability, T/C (second compound 10 µM, first compound 0.001 µM) 20.4% | viability, T/C (second compound 10 µM, first compound 0.00316 µM) 21.2% | viability, T/C (second compound 10 µM, first compound 0.01 µM) 20.6% | viability, T/C (second compound 10 µM, first compound 0.0316 µM) 24.5% | viability, T/C (second compound 10 µM, first compound 0.1 µM) 27.6%
